Reference: article PMC12603070, “A high-throughput screening approach to discover potential colorectal cancer chemotherapeutics: repurposing drugs to identify novel disruptors of 14-3-3 proteins” (Cell Death & Disease, 2025)

Tests used:
14-3-3ζ = biological target: T1, 14-3-3ζ (Homo sapiens, UniProt P63104); assay: Isothermal titration calorimetry (ITC) with purified 14-3-3ζ; type: binding; conditions: 750-1,000 μM ligand, 70 μM protein, 1-4% DMSO
T1 construct: made in house; host or cells: Escherichia coli BL21 LOBSTR-RIL
T1 sequence (P63104 1-245): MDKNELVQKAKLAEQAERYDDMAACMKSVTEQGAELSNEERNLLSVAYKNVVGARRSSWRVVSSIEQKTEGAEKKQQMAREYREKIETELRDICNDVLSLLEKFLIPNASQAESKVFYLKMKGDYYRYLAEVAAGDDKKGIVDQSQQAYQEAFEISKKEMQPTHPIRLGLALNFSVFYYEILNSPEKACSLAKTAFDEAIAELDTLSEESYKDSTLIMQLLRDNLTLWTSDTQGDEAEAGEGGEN
Protocol: application to isothermal titration calorimetry (ITC) studies.
ITC experiments were performed, but the solubility incompatibility gave unclear data, with a […]
All ITC experiments were conducted at 750-1,000 μM of the ligand (in the syringe: titrant), with 70 μM of protein in the cell: titrand); each injection introduced approximately 4 nmol of ligand. All experiments were conducted at 1 -4% DMSO based on drug’s solubility. […]

His-14-3-3ζ = biological target: T2, His-14-3-3ζ (Homo sapiens, UniProt P63104); assay: Surface plasmon resonance (SPR) on immobilized His-14-3-3ζ; type: binding
T2 construct: made in house; host or cells: Escherichia coli BL21 LOBSTR-RIL
T2 sequence (P63104 1-245): T1 sequence (P63104 1-245)
Protocol: The published protocol of Higuchi & Ottmann as followed with modifications to express 14-3-3ζ [44]. Escherichia coli BL21 LOBSTR-RIL cells were transformed with a plasmid encoding His-14-3-3ζ. The transformed cells were grown in TB medium containing appropriate antibiotic at 37 °C with shaking at 200 rpm until the culture reached an optical density of 0.6–0.8 at 600 nm (OD600). Protein expression was induced by the addition of isopropyl β-D-1-thiogalactopyranoside to a final concentration of 0.4 mM. Subsequently, the temperature was decreased to 16 °C and the culture incubated for another 16 h. Cells were harvested by centrifugation at 7000 × g for 20 min at 21 °C. The supernatant was discarded, and the cell pellet containing 14-3-3ζ was mixed and resuspended in lysis buffer (50 mM Tris, pH 7.80), 500 mM NaCl, 5 mM imidazole, 5% glycerol, 1 mM PMSF & 1 mM Benzamidine. Cells were lysed by sonication on ice using a probe sonicator (20 cycles of 10 s on, 20 s off, amplitude 70%). The lysate was centrifuged at 30,000 × g for 30 min at 4 °C to remove cell debris. The supernatant was collected for further purification. The 14-3-3ζ was isolated from the lysate by affinity chromatography (Ni-NTA beads, Qiagen). For further purification, the eluant was subjected to size exclusion chromatography using a Superdex 75 gel filtration column (HiLoad 16/600, GE Healthcare), pre-equilibrated with SEC buffer (20 mM Tris, pH 7.5, 150 mM NaCl, 1 mM TCEP). The protein solution was concentrated by ultrafiltration, flash frozen, and stored at −80 °C.
The general protocol for evaluating 14-3-3ζ was adapted from Hartman et al. and modified for our instrument and sensors. The SPR experiments were performed using a Open surface plasmon resonance instrument (OpenSPR^TM, Nicoya, Kitchener-Waterloo, Canada), and high sensitivity-nitrilotriacetic acid (HS-NTA) sensors. The sensor chip surface was first activated with 40 mM of NiCl2 at a flow rate of 20 μL/min using 20 mM HEPES pH 7.8, 150 mM NaCl and 1% DMSO as the running buffer. All running buffers were filtered and degassed prior to use. 100 μg/mL His-14-3-3ζ protein in 20 mM HEPES pH 7.8, 150 mM NaCl and 1% DMSO was injected at 8 μL/min flow rate for 800 s contact time and immobilized until the instrument registered 2900–3500 RU (activation and protein immobalization spectrograms are provided as Supplementary Fig. 10). Drugs were dissolved in DMSO and were diluted with 20 mM HEPES pH 7.8, 150 mM NaCl (final DMSO concentration of 1% v/v) and were injected at a flow rate of 50 μL/min. Single-cycle kinetics were applied for KD evaluation and binding affinity using TraceDrawer v.1.8.1 (Ridgeview Instruments AB).

**Q.** `CCCCCCOC(=O)c1ccc(Nc2c([N+](=O)[O-])cc(C(=O)O)cc2[N+](=O)[O-])cc1` [BV01, 4-((4-((hexyloxy)carbonyl)phenyl)amino)-3,5-dinitrobenzoic acid] was tested. Which “Binding by ITC” value (14-3-3ζ) did it give?
**A.** weak sign of binding

**Q.** What about the “Bmax ([Signal (RU)])” value (His-14-3-3ζ; SPR curve at 0.005 mM ligand) of the same compound?
**A.** 100.98 RU

**Q.** What about the “Bmax ([Signal (RU)])” value (His-14-3-3ζ; SPR curve at 0.007 mM ligand) of the same compound?
**A.** 147.7 RU

**Q.** And the “Bmax ([Signal (RU)])” value (His-14-3-3ζ; SPR curve at 0.03 mM ligand)?
**A.** 198.6 RU

**Q.** What about the “Bmax ([Signal (RU)])” value (His-14-3-3ζ; SPR curve at 0.05 mM ligand) of the same compound?
**A.** 257.38 RU

**Q.** And the “Bmax ([Signal (RU)])” value (His-14-3-3ζ; SPR curve at 0.07 mM ligand)?
**A.** 320.07 RU

**Q.** And the kd (His-14-3-3ζ; SPR dissociation rate, value repeated per curve)?
**A.** 0.0112 s⁻¹

**Q.** And the “BI ([Signal (RU)])” value (His-14-3-3ζ; SPR fit parameter, per curve)?
**A.** 0.1 RU

**Q.** And the Kd (His-14-3-3ζ; SPR, immobilized His-14-3-3ζ, single-cycle kinetics, 1% DMSO)?
**A.** 6.32 µM

**Q.** What about the kon (His-14-3-3ζ; pH 7.8, read-out: ka) of the same compound?
**A.** 1770 M⁻¹ s⁻¹
